These results are taken from US20240124412A1, “IKAROS ZINC FINGER FAMILY DEGRADERS AND USES THEREOF” (Gilead Sciences, Inc., priority 2021, published 2024).

Molecules are shown by their SMILES.

In assay [1] the target is T1, IKZF1 (Homo sapiens, UniProt Q13422+Q96SW2).
T1 construct: expressed in transfected cells
The assay can be described thus: HiBiT protein tagging assay, in vitro IKZF1 degradation (HEK293). The following applies: HEK293, 18-24 hr incubation, normalized to DMSO control; for DC50: read-out: IKZF1 EC50; for Dmax: read-out: IKZF1 Dmax (maximum degradation at the highest concentration tested). It counts as cell-based. Here is the method: (§1) In vitro degradation of IKZF1 and IKZF2 was measured using HiBiT protein tagging and detection technology (Promega).
(§2) HiBiT technology (Promega) was used to develop the quantitative assays to measure the cellular IKZFs level by tagging an 11 amino acid HiBit peptides VSGWRLFKKIS (SEQ ID NO:1) to the protein of interest. Reporter plasmids were generated by fusing a linker sequence (GSSGGSSG; SEQ ID NO:2) followed by the HiBiT tag at the C terminus of IKZF1 and IKZF2. The fusion fragments were subsequently cloned into pcDNA5 pcDNA™5/FRT/TO plasmids (Thermo Fisher, cat #V652020) downstream of the Tetracycline operator. The resulting plasmids were co-transfected with pOG44 Flp-Recombinase Expression Vector (Thermo Fisher, cat #V600520) into Flp-In™ T-REx HEK293 line (Thermo Fisher, cat #R78077) and a stable cell pool was selected by adding 100 μg/ml of Hygromycin (Thermo Fisher, cat #10687010). The reporter cell enabled Tet-On inducible reporter expression from a single copy of the integrated gene.
(§3) On Day 1, Cells were grown to ˜80% confluency in TC medium (DMEM Glutamax (Gibco10569), 10% Tet free FBS (Takara 631106), and PenStrep Glutamin (Gibco 10378)) in tissue culture flasks. Doxycycline was then added to a final concentration of 1 μg/ml to induce reporter expression at 37° C. overnight.
(§4) On Day 2, 125 nL of serially-diluted solution of testing compounds were dispensed into 384-well white solid assay plates via ECHO acoustic liquid handler. Cells were lifted by 0.25% Trypsin (Gibco 25200) then pelleted by centrifugation (Beckman Avanti J-E) at 500×g for 5 min. Cell pellets were resuspended in TC medium at the concentration of 3e5/mL and 25 μL of cell suspension were added into each well of compound-spotted plates. The plates were returned to a 37° C. incubator overnight (18-24 hr).
(§5) On Day 3, assay plates were removed from the TC incubator and 25 μL of Nano-Glo lytic detection system (Promega, cat #N3030) was added to each well. Plates were incubated at r.t. for 3 min with shaking, and luminescence was read using an Envision reader (Perkin Elmer).
(§6) All raw data was normalized to DMSO control (final concentration: 0.5%) wells as POC and plotted out for EC50 and Dmax (Maximum degradation at the highest concentration tested in the assay).
In general terms: With HiBiT, luminescence reflects the tagged protein that the partner subunit can reach.

The target of assay [2] is T2, IKZF2 (Homo sapiens, UniProt Q96SW2+Q9UKS7).
T2 construct: expressed in transfected cells
Briefly: HiBiT protein tagging assay, in vitro IKZF2 degradation (HEK293). It counts as cell-based. The following applies: HEK293, 18-24 hr incubation, normalized to DMSO control; for Dmax: HEK293, HiBiT assay, read-out: IKZF2 Dmax (maximum degradation at the highest concentration tested); for DC50: read-out: IKZF2 EC50. On the procedure:
as §1, §2, §3, §4, §5, §6

T1 sequence (Q13422 whole entry): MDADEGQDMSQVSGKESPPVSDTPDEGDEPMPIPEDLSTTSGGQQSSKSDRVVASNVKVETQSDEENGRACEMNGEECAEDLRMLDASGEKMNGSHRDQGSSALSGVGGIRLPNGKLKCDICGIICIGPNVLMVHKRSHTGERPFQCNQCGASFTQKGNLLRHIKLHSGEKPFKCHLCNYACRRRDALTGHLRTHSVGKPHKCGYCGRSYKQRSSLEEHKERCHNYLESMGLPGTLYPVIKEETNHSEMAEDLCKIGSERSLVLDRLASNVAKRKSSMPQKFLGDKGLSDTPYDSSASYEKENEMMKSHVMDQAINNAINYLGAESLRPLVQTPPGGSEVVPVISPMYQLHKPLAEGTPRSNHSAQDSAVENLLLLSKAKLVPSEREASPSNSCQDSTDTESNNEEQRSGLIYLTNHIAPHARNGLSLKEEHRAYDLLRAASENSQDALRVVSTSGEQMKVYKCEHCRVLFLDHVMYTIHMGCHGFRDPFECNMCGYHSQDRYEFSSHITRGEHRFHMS
T1 sequence (Q96SW2 whole entry): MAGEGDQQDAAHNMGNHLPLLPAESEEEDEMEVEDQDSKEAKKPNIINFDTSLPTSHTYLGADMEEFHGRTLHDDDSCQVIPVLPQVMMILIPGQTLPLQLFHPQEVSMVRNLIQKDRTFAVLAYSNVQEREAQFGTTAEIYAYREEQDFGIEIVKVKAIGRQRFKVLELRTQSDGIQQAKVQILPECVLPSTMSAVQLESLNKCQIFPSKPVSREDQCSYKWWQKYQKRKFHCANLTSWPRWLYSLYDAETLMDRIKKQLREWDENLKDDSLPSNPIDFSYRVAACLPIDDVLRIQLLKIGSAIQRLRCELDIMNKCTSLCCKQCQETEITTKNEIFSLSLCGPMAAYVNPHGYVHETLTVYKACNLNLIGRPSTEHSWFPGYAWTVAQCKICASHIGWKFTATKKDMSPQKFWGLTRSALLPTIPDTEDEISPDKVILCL
T1 sequence (Q16531 whole entry partner): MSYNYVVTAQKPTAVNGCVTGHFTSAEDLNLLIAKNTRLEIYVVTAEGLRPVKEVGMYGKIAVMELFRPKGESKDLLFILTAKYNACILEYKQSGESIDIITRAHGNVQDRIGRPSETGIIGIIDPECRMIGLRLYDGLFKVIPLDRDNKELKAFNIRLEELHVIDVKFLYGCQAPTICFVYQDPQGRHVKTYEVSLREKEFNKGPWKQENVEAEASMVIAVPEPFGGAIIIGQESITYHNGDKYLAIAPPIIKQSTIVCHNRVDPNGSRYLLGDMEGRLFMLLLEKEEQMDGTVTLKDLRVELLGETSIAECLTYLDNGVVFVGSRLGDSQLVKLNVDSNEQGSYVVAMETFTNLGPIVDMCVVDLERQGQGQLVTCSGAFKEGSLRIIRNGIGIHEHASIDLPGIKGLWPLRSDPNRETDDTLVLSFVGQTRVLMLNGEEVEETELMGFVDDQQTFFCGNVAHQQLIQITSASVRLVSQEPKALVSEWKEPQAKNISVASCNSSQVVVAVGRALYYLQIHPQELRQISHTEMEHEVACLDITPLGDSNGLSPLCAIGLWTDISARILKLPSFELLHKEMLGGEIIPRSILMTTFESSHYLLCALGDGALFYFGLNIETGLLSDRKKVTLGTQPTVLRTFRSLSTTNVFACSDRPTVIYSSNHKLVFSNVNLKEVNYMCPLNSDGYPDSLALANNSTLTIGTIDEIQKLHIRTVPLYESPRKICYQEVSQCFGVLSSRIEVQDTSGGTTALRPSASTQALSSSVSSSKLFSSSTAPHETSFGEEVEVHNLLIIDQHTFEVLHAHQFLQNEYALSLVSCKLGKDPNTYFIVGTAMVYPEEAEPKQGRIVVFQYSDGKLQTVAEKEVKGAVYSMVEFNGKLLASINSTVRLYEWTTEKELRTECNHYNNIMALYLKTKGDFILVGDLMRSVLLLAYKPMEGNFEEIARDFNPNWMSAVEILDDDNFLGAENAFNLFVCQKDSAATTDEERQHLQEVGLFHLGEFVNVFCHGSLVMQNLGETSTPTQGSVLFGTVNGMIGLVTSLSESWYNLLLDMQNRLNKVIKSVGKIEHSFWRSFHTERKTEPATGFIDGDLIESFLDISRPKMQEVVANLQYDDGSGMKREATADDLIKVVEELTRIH
T2 sequence (Q9UKS7 1-500 isoform Q9UKS7-2): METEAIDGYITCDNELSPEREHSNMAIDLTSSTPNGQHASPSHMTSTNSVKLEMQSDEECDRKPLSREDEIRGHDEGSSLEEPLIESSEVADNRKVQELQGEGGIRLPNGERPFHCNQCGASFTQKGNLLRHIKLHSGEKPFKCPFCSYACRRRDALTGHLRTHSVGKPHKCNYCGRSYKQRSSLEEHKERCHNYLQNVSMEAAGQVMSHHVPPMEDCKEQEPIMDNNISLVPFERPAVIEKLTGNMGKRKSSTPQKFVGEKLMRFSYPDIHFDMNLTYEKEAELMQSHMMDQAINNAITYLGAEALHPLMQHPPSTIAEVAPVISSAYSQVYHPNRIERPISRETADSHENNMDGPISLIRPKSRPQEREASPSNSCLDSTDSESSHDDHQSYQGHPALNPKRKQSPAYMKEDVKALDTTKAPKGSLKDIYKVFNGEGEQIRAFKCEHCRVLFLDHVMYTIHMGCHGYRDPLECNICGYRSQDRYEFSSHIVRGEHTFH
T2 sequence (Q96SW2 whole entry): as the sequence (Q96SW2 whole entry) above
T2 sequence (Q16531 whole entry partner): as the sequence (Q16531 whole entry partner) above

`O=C1CCC(N2Cc3cc(CN[C@H]4CCCC[C@H]4CO)ccc3C2=O)C(=O)N1` (stereo partly drawn) [Example 39, 3-(5-((((1S,2R)-2-(hydroxymethyl)cyclohexyl)amino)methyl)-1-oxoisoindolin-2-yl)piperidine-2,6-dione]: the figures for the DC50 in assay [1] and in assay [2] (HiBiT assay) were more than 10000 nM and 4100 nM, respectively. Moreover, the Dmax in assay [2] worked out at 37%.

Consider `O=C1CCC(N2Cc3cc(CN[C@@H]4CCCC[C@H]4O)ccc3C2=O)C(=O)N1` (stereo partly drawn) [Example 40, 3-(5-((((1R,2R)-2-hydroxycyclohexyl)amino)methyl)-1-oxoisoindolin-2-yl)piperidine-2,6-dione], for which the DC50 was more than 10000 nM in assay [1] and 1200 nM in assay [2] (HiBiT assay). Besides, the Dmax in assay [2] is 38%.

Take `O=C1CCC(N2Cc3cc(CNC4CCC4)ccc3C2=O)C(=O)N1` (stereo not shown) [Example 41]: the Dmax stood at 31% in assay [1] and 42% in assay [2]. Moreover, the DC50 in assay [1] worked out at 51 nM; in assay [2] (HiBiT assay), 373 nM.

For `O=C1CCC(N2Cc3cc(CNC4CC5CCC4C5)ccc3C2=O)C(=O)N1` (stereo not drawn) [Example 42, 3-(5-((exo-bicyclo[2.2.1]heptan-2-ylamino)methyl)-1-oxoisoindolin-2-yl)piperidine-2,6-dione], the Dmax in assay [1] worked out at 30%; in assay [2] it was 65%. In addition, the DC50 in assay [1] came out at 85 nM; in assay [2] (HiBiT assay), 193 nM.

With `O=C1CCC(N2Cc3cc(CN[C@H]4CCCc5ccccc54)ccc3C2=O)C(=O)N1` (stereo partly drawn) [Example 43, 3-(1-oxo-5-((((S)-1,2,3,4-tetrahydronaphthalen-1-yl)amino)methyl)isoindolin-2-yl)piperidine-2,6-dione], the figures for the Dmax in assay [1] and in assay [2] were 71% and 78%, respectively. Further, the DC50 in assay [1] came out at 32 nM; in assay [2] (HiBiT assay), 64 nM.

For the molecule `O=C1CCC(N2Cc3cc(CNCCc4ccccc4Cl)ccc3C2=O)C(=O)N1` (stereo not shown) [Example 44, 3-(5-(((2-chlorophenethyl)amino)methyl)-1-oxoisoindolin-2-yl)piperidine-2,6-dione], the Dmax is 72% in assay [1] and 32% in assay [2]. Moreover, the DC50 was found to be 38 nM in assay [1] and 240 nM in assay [2] (HiBiT assay).

Consider `O=C1CCC(N2Cc3cc(CN[C@@H]4C[C@H](F)CN(Cc5ccccc5)C4)ccc3C2=O)C(=O)N1` (stereo partly shown) [Example 45], for which the Dmax in assay [1] is 93%; in assay [2], 84%. The DC50 came to 30 nM in assay [1] and 182 nM in assay [2] (HiBiT assay).

As for `C[C@@H]1CCCC[C@@H]1NCc1ccc2c(c1)CN(C1CCC(=O)NC1=O)C2=O` (stereo partly shown) [Example 46], the Dmax in assay [1] is 36%; in assay [2], 76%. Further, the DC50 in assay [1] is 275 nM; in assay [2] (HiBiT assay), 141 nM.

Consider `C[C@H]1CC[C@H](NCc2ccc3c(c2)CN(C2CCC(=O)NC2=O)C3=O)CC1` (stereo partly shown) [Example 47], for which the Dmax in assay [1] turned out to be 41%; in assay [2] it was 82%. Moreover, the DC50 in assay [1] came to 189 nM; in assay [2] (HiBiT assay), 182 nM.

On to `CCN1CCC(NCc2ccc3c(c2)CN(C2CCC(=O)NC2=O)C3=O)CC1` (stereo not shown) [Example 48, 3-(5-(((1-Ethylpiperidin-4-yl)amino)methyl)-1-oxoisoindolin-2-yl)piperidine-2,6-dione], for which the results for the Dmax in assay [1] and in assay [2] were 25% and 32%, respectively. The DC50 in assay [1] stood at 655 nM; in assay [2] (HiBiT assay), 2800 nM.

For `O=C1CCC(N2Cc3cc(CNC4CCCC(c5ccccc5)C4)ccc3C2=O)C(=O)N1` (stereo not shown) [Example 50], the Dmax was 30% in assay [1] and 51% in assay [2]. For the same molecule, the DC50 worked out at 47 nM in assay [1] and 166 nM in assay [2] (HiBiT assay).

For `C[C@H](CO)NCc1ccc2c(c1)CN(C1CCC(=O)NC1=O)C2=O` (stereo partly drawn) [Example 51, 3-[5-[[[(1R)-2-hydroxy-1-methyl-ethyl]amino]methyl]-1-oxo-isoindolin-2-yl]piperidine-2,6-dione], the Dmax came out at 36% in assay [1] and 17% in assay [2]. Moreover, the values for the DC50 in assay [1] and in assay [2] (HiBiT assay) were 263 nM and 1200 nM, respectively.

With `O=C1CCC(N2Cc3cc(CN[C@H](CO)c4ccccc4)ccc3C2=O)C(=O)N1` (stereo partly shown) [Example 52], the DC50 in assay [1] was more than 10000 nM; in assay [2] (HiBiT assay), 472 nM. Also, the Dmax in assay [2] turned out to be 22%.

For `C[C@@H](CO)NCc1ccc2c(c1)CN(C1CCC(=O)NC1=O)C2=O` (stereo partly shown) [Example 53], the results for the Dmax in assay [1] and in assay [2] were 24% and 20%, respectively. For the same molecule, the DC50 was determined as 289 nM in assay [1] and 460 nM in assay [2] (HiBiT assay).

On to `O=C1CCC(N2Cc3cc(CN[C@H]4C[C@@H](O)C4)ccc3C2=O)C(=O)N1` (stereo partly shown) [Example 54], for which the Dmax amounted to 28% in assay [1] and 33% in assay [2]. Besides, the DC50 in assay [1] amounted to 367 nM; in assay [2] (HiBiT assay), 2800 nM.

Take `O=C1CCC(N2Cc3cc(CNCCCO)ccc3C2=O)C(=O)N1` (stereo not shown) [Example 55]: the Dmax in assay [1] was found to be 36%; in assay [2] it was 20%. In addition, the DC50 is 394 nM in assay [1] and 1300 nM in assay [2] (HiBiT assay).

With `O=C1CCC(N2Cc3cc(CN[C@H](CO)Cc4ccccc4)ccc3C2=O)C(=O)N1` (stereo partly shown) [Example 56], the results for the Dmax in assay [1] and in assay [2] were 23% and 22%, respectively. For the same molecule, the DC50 in assay [1] was found to be 222 nM; in assay [2] (HiBiT assay), 525 nM.

Consider `O=C1CCC(N2Cc3cc(CNC4CCN(C(=O)c5ccccc5)CC4)ccc3C2=O)C(=O)N1` (stereo not shown) [Example 57], for which the Dmax amounted to 77% in assay [1] and 96% in assay [2]. Besides, the DC50 in assay [1] turned out to be 246 nM; in assay [2] (HiBiT assay), 1300 nM.

With `O=C1CCC(N2Cc3cc(CNC4CCC5(CC4)CC5)ccc3C2=O)C(=O)N1` (stereo not shown) [Example 58], the Dmax in assay [1] amounted to 66%; in assay [2], 81%. Further, the DC50 in assay [1] came to 50 nM; in assay [2] (HiBiT assay) it was 67 nM.

As to `O=C1CCC(N2Cc3cc(CNC4CCC5(CCC5)CC4)ccc3C2=O)C(=O)N1` (stereo not shown) [Example 59], the Dmax in assay [1] turned out to be 62%; in assay [2] it was 74%. Also, the DC50 in assay [1] was 50 nM; in assay [2] (HiBiT assay) it was 55 nM.

For `O=C1CCC(N2Cc3cc(CNC4CCC5(CC4)COC5)ccc3C2=O)C(=O)N1` (stereo not shown) [Example 60], the figures for the Dmax in assay [1] and in assay [2] were 55% and 84%, respectively. Further, the DC50 in assay [1] is 403 nM; in assay [2] (HiBiT assay) it was 401 nM.

Turning to `O=C1CCC(N2Cc3cc(CNC4CCN(Cc5ccccc5)C(=O)C4)ccc3C2=O)C(=O)N1` (stereo not shown) [Example 61], the Dmax in assay [1] is 27%; in assay [2], 29%. The DC50 in assay [2] (HiBiT assay) is 1400 nM.

On to `O=C1CCC(N2Cc3cc(CNC4CCN(Cc5ccccc5)C(=O)C4)ccc3C2=O)C(=O)N1` (stereo not shown) [Example 62], for which, in assay [1], the “IKZF1 Dmax (maximum degradation at the highest concentration tested)” value is 27% and the DC50 came out at 886 nM. Further, in assay [2] (HiBiT assay), the “IKZF2 Dmax (maximum degradation at the highest concentration tested)” value amounted to 27% and the DC50 came to 1700 nM.

For `N#CC[C@H]1CC[C@H](NCc2ccc3c(c2)CN(C2CCC(=O)NC2=O)C3=O)CC1` (stereo partly shown) [Example 63], the Dmax worked out at 44% in assay [1] and 91% in assay [2]. The figures for the DC50 in assay [1] and in assay [2] (HiBiT assay) were 609 nM and 361 nM, respectively.

Regarding `O=C1CCC(N2Cc3cc(CNCc4cc5ccccc5[nH]4)ccc3C2=O)C(=O)N1` (stereo not shown) [Example 64], the Dmax was 80% in assay [1] and 45% in assay [2]. Besides, the results for the DC50 in assay [1] and in assay [2] (HiBiT assay) were 61 nM and 276 nM, respectively.

As to `O=C1CCC(N2Cc3cc(CN[C@H]4CC[C@](O)(c5ccccc5)CC4)ccc3C2=O)C(=O)N1` (stereo partly shown) [Example 65], the Dmax was 86% in assay [1] and 90% in assay [2]. Besides, the DC50 was 29 nM in assay [1] and 67 nM in assay [2] (HiBiT assay).
